Where two headings read alike, the source gives them in different places.
How the values were obtained:
STK36 = assay: KINOMEscan; type: binding; conditions: 1000 nM
AURKB = assay: KINOMEscan; type: binding; conditions: 1000 nM
CSF1R = assay: KINOMEscan; type: binding; conditions: 1000 nM
KIT-autoinhibited = assay: KINOMEscan; type: binding; conditions: 1000 nM
PIK3CA(H1047Y) = assay: KINOMEscan; type: binding; conditions: 1000 nM
IKK-epsilon = assay: KINOMEscan; type: binding; conditions: 1000 nM
CAMK2D = assay: KINOMEscan; type: binding; conditions: 1000 nM
[1] = system: ABL1(H396P)-phosphorylated; assay: KINOMEscan; type: binding; conditions: 1000 nM
INSRR = assay: KINOMEscan; type: binding; conditions: 1000 nM
MEK4 = assay: KINOMEscan; type: binding; conditions: 1000 nM
MYO3B = assay: KINOMEscan; type: binding; conditions: 1000 nM
MKK7 = assay: KINOMEscan; type: binding; conditions: 1000 nM
FLT3(ITD) = assay: KINOMEscan; type: binding; conditions: 1000 nM
BLK = target: T1, BLK (Homo sapiens, UniProt P51451); assay: KINOMEscan; type: binding; conditions: 1000 nM
T1 construct: purchased Invitrogen (Carlsbad, CA, USA)

PRKCE = assay: KINOMEscan; type: binding; conditions: 1000 nM
KIT(D816V) = assay: KINOMEscan; type: binding; conditions: 1000 nM
CLK2 = assay: KINOMEscan; type: binding; conditions: 1000 nM
MLCK = assay: KINOMEscan; type: binding; conditions: 1000 nM
YANK1 = assay: KINOMEscan; type: binding; conditions: 1000 nM
FLT3 = assay: KINOMEscan; type: binding; conditions: 1000 nM
CAMK2A = assay: KINOMEscan; type: binding; conditions: 1000 nM
[2] = system: TMD8 cell (DLBCL)-inoculated xenograft; assay: TMD8 cell subcutaneous xenograft tumor model; type: in vivo
MAP3K15 = assay: KINOMEscan; type: binding; conditions: 1000 nM
BUB1 = assay: KINOMEscan; type: binding; conditions: 1000 nM
SGK3 = assay: KINOMEscan; type: binding; conditions: 1000 nM
PRKD1 = assay: KINOMEscan; type: binding; conditions: 1000 nM
SBK1 = assay: KINOMEscan; type: binding; conditions: 1000 nM
TLK1 = assay: KINOMEscan; type: binding; conditions: 1000 nM
CAMK2B = assay: KINOMEscan; type: binding; conditions: 1000 nM
PRKCD = assay: KINOMEscan; type: binding; conditions: 1000 nM
PCTK2 = assay: KINOMEscan; type: binding; conditions: 1000 nM
KIT(D816H) = assay: KINOMEscan; type: binding; conditions: 1000 nM
AKT1 = assay: KINOMEscan; type: binding; conditions: 1000 nM
MARK2 = assay: KINOMEscan; type: binding; conditions: 1000 nM
MARK1 = assay: KINOMEscan; type: binding; conditions: 1000 nM
WNK4 = assay: KINOMEscan; type: binding; conditions: 1000 nM
SNARK = assay: KINOMEscan; type: binding; conditions: 1000 nM
JNK1 = assay: KINOMEscan; type: binding; conditions: 1000 nM
MST2 = assay: KINOMEscan; type: binding; conditions: 1000 nM
FLT3(ITD,D835V) = assay: KINOMEscan; type: binding; conditions: 1000 nM
PKMYT1 = assay: KINOMEscan; type: binding; conditions: 1000 nM
PDGFRB = assay: KINOMEscan; type: binding; conditions: 1000 nM
AMPK-alpha1 = assay: KINOMEscan; type: binding; conditions: 1000 nM
[3] = in vivo pharmacokinetic study; design: species or system rats; conditions: male, Sprague-Dawley, rat, plasma; for MRT inf: read-out: MRT (0- ∞)
SgK110 = assay: KINOMEscan; type: binding; conditions: 1000 nM
MAP4K2 = assay: KINOMEscan; type: binding; conditions: 1000 nM
[4] = system: RPS6KA5(Kin.Dom.2-C-terminal); assay: KINOMEscan; type: binding; conditions: 1000 nM
LIMK1 = assay: KINOMEscan; type: binding; conditions: 1000 nM
FES = assay: KINOMEscan; type: binding; conditions: 1000 nM
LRRK2(G2019S) = assay: KINOMEscan; type: binding; conditions: 1000 nM
PRKCH = assay: KINOMEscan; type: binding; conditions: 1000 nM
FLT3(N841I) = assay: KINOMEscan; type: binding; conditions: 1000 nM
WNK2 = assay: KINOMEscan; type: binding; conditions: 1000 nM
FLT3(K663Q) = assay: KINOMEscan; type: binding; conditions: 1000 nM

T1 sequence (P51451 whole entry): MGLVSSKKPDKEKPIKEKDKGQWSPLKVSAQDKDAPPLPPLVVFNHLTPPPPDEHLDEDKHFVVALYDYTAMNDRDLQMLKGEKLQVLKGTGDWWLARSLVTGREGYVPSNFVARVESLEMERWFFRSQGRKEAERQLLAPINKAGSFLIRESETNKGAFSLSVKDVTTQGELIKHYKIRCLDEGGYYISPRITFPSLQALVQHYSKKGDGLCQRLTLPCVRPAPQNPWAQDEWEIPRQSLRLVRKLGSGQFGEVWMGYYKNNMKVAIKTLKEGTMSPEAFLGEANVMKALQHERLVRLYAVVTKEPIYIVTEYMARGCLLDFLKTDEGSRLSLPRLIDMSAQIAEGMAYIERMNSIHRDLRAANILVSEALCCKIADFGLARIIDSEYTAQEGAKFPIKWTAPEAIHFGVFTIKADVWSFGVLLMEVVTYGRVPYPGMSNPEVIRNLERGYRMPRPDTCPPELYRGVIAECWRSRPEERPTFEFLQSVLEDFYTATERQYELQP

## C=CC(=O)Nc1cc(Nc2cc(-c3cccc(NC(=O)c4cc5c(s4)CCCC5)c3C)cn(C)c2=O)ccc1N1CCN(CC)CC1 [CHMFL-BTK-85]
STK36
  Percent Control: 99%
AURKB
  Percent Control: 100%
CSF1R
  Percent Control: 90%
KIT-autoinhibited
  Percent Control: 100%
PIK3CA(H1047Y)
  Percent Control: 83%
IKK-epsilon
  Percent Control: 53%
CAMK2D
  Percent Control: 75%
[1]
  Percent Control: 85%
INSRR
  Percent Control: 90%
MEK4
  Percent Control: 100%
MYO3B
  Percent Control: 92%
MKK7
  Percent Control: 99%
FLT3(ITD)
  Percent Control: 99%
BLK
  percent of control kinase binding at 1 µM: 57%
PRKCE
  Percent Control: 93%
KIT(D816V)
  Percent Control: 71%
CLK2
  Percent Control: 84%
MLCK
  Percent Control: 100%
YANK1
  Percent Control: 100%
FLT3
  Percent Control: 80%
CAMK2A
  Percent Control: 82%
[2]; TMD8 xenograft, 100 mg/kg/day, 28 days
  TGI: 96%
[2]; mouse, body weight monitoring
  toxicity signs in TMD8 xenograft model: no weight loss or any other obvious signs of toxicity
MAP3K15
  Percent Control: 96%
BUB1
  Percent Control: 100%
SGK3
  Percent Control: 100%
PRKD1
  Percent Control: 100%
SBK1
  Percent Control: 100%
TLK1
  Percent Control: 99%
CAMK2B
  Percent Control: 100%
PRKCD
  Percent Control: 77%
PCTK2
  Percent Control: 100%
KIT(D816H)
  Percent Control: 100%
AKT1
  Percent Control: 80%
MARK2
  Percent Control: 91%
MARK1
  Percent Control: 100%
WNK4
  Percent Control: 82%
SNARK
  Percent Control: 100%
JNK1
  Percent Control: 100%
MST2
  Percent Control: 88%
FLT3(ITD,D835V)
  Percent Control: 100%
PKMYT1
  Percent Control: 63%
PDGFRB
  Percent Control: 68%
AMPK-alpha1
  Percent Control: 100%
[3]; iv, Rats, I.V. 1mg/kg
  AUC(0-inf): 0.766 ± 0.261 µg·h/mL
  AUC(0-t): 0.747 ± 0.263 µg·h/mL
  Cmax: 1.08 ± 0.39 µg/mL
  Tmax: 0.02 h
  half-life: 1.6 ± 0.3 h
  MRT inf: 1.6 ± 0.2 h
[3]; po, Rats, P.O. 10mg/kg
  AUC(0-inf): 2.16 ± 0.474 µg·h/mL
  Cmax: 0.296 ± 0.067 µg/mL
  Tmax: 6 h
  bioavailability: 29%
  half-life: 2.9 h
  MRT inf: 6.5 ± 0.1 h
[3]; rats, oral administration at 10 mg/kg
  AUC(0-t): 2.15 µg·h/mL
SgK110
  Percent Control: 92%
MAP4K2
  Percent Control: 100%
[4]
  Percent Control: 66%
LIMK1
  Percent Control: 98%
FES
  Percent Control: 98%
LRRK2(G2019S)
  Percent Control: 100%
PRKCH
  Percent Control: 93%
FLT3(N841I)
  Percent Control: 83%
WNK2
  Percent Control: 87%
FLT3(K663Q)
  Percent Control: 100%

Reference: article PMC7490411 (Signal Transduction and Targeted Therapy, 2020)
